Measured values from article PMC8304634, “Structure–Activity Relationships of the Antimalarial Agent Artemisinin 10. Synthesis and Antimalarial Activity of Enantiomers of rac-5β-Hydroxy-D-Secoartemisinin and Analogs: Implications Regarding the Mechanism of Action” (Molecules, 2021).
Converted amounts (≈) assume the structure as drawn. “Also recorded” adds a separate entry of the source.

Experiments:
[1] = test system: P. falciparum Sierra Leone (D-6) clone; test: In vitro antimalarial pLDH assay, D-6 clone; type: cell-based; conditions: for IC50: Plasmodium falciparum, Erythrocyte, read-out: IC50 (ng/mL) D-6; for IC50 / IC50 (ng/mL) D-6: 72 h, parasitized red blood cells, pLDH readout, NA = Not active
Protocol: (§1) Artemisinin 1 and the analogs rac-2, 2a, 2b, 9–16, diastereomers 19a, 19b, 22 and 29 were tested in vitro in parasitized whole blood against drug-resistant strains of P. falciparum parasite clones D-6 and W-2 at The National Center for Natural Products Research (NCNPR) at The University of Mississippi using the parasite lactate dehydrogenase (pLDH) assay developed by Makler (Table 3). This assay is based on the ability of the pLDH enzyme of P. falciparum to reduce APAD to APADH. This reaction is carried out at a slow rate by human red blood cell LDH.
(§2) The formation of APADH was monitored colorimetrically by the addition of nitroblue tetrazolium which was reduced to a blue formazan product. Two P. falciparum malaria parasite clones, designated as Indochina (W-2) and Sierra Leone (D-6), were used in susceptibility testing. The W-2 clone is chloroquine-resistant and mefloquine-sensitive, while the D-6 clone is chloroquine-sensitive but mefloquine resistant. The relative potency values for these analogs were derived from the IC50 value for artemisinin (1) divided by their IC50 values (Table 3) and then adjusted for molecular weight differences by multiplication of the ratio of the molecular weight of the analog divided by the molecular weight of artemisinin. This approach to reporting activity was based in part on the fact that the analogs were tested on different occasions in which the IC50 for the control, artemisinin, had varied anywhere from 5 to 7 ng/mL based on parasitemia levels and clone.
(§3) Synthesized compounds were tested in vitro against two P. falciparum malaria parasite clones, designated as Indochina (W-2) and Sierra Leone (D-6). The W-2 clone is chloroquine resistant whereas the D-6 clone is a chloroquine-sensitive strain.
(§4) A suspension of red blood cells infected with W-2 or D-6 strain of P. falciparum that contains 2% parasitemia and 2% hematocrit in RPMI 1640 medium supplemented with 10% human serum and 60 µg/mL amikacin was dispensed into the wells of a 96-well flat-bottomed microtiter plate containing 10 µL of serially diluted test samples. The plates were incubated at 37 °C in an environment of 90% N2, 5% O2, and 5% CO2 for 72 h. Next, 100 µL aliquots of the Malstat reagent were added to each well of a new 96-well microtiter plate. The cultures were resuspended from the assay plate by mixing each well up and down several times. A total of 20 µL from each well of the resuspended culture was removed and added to the plate containing the Malstat reagent and the plate was incubated at r.t., for 30 min. Further, to each well, 20 µL of a NBT/PES (1:1) solution (2 and 0.1 mg/mL, respectively) were added. The plate was incubated in the dark for 1 h. The reaction was terminated by the addition of 100 µL of a 5% acetic acid solution. The […] plate was then read at 650 nm. Artemisinin and chloroquine were included in each assay as antimalarial drug controls. The IC50 values were computed from the dose–response curves using XLfit 4.2.

[2] = test system: P. falciparum Indochina (W-2) clone; test: In vitro antimalarial pLDH assay, W-2 clone; type: cell-based; conditions: for IC50: Plasmodium falciparum, Erythrocyte, read-out: IC50 (ng/mL) W-2; for IC50 / IC50 (ng/mL) W-2: 72 h, parasitized red blood cells, pLDH readout, NA = Not active
Protocol: as §1, §2, §3, §4

[3] = test system: P. falciparum; test: In vitro antimalarial pLDH assay, clone not distinguished in the statement; type: cell-based; conditions: for in vitro antimalarial activity (in words): W-2 and D-6 strains
Protocol: as §1, §2, §3, §4

[4] = 100 × [IC50 (artemisinin, control value)/IC50 (analog)] MW (analog)/MW(artemisinin)
[5] = as quoted in the Discussion, relative to artemisinin

| SMILES | Relative Activity D-6 [1, 4] | IC50 [1] [ng/mL] | Relative Activity D-6 [1, 5] [%] | Relative Activity W-2 [2, 4] | IC50 [2] [ng/mL] | Relative Activity W-2 [2, 5] [%] | in vitro antimalarial activity (in words) [3] | times more potent than the alcohol rac-2 or 2a ([3]; fold potency versus rac-2 or 2a) | IC50 (ng/mL) D-6 [1] [ng/mL] | IC50 (ng/mL) W-2 [2] [ng/mL] | melting point [°C] | IC50 ([3]; Plasmodium falciparum, varied between test occasions, based on parasitemia levels and clone, read-out: IC50 for the control, artemisinin) [ng/mL] |
| --- | --- | --- | --- | --- | --- | --- | --- | --- | --- | --- | --- | --- |
| CC12CC(=O)C3CCCCC3(CO1)OO2 (stereo not shown) [Compound 15, 3-Methylhexahydro-1H-3,9a-epidioxybenzo[c]oxepin-5(5aH)-one] | 33.30 | 31.8 (≈ 0.15 µM) | 33.30 | 32.72 | 23.3 (≈ 0.11 µM) | 32.72 | substantially improved over the corresponding alcohol 2 | 55–77 | – | – | – | – |
| COC(C(=O)OC1CC2(C)OCC3(CCCCC13)OO2)(c1ccccc1)C(F)(F)F [Compound 19a, (3R,5R,5aR,9aS)-3-methyloctahydro-1H-3,9a-epidioxybenzo[c]oxepin-5-yl(R)-3,3,3-trifluoro-2-methoxy-2-phenylpropanoate] | 7.13 | – | – | 2.17 | – | – | – | – | 150.64 (≈ 0.35 µM) | 357.24 (≈ 0.83 µM) | – | – |
| C[C@@]12C[C@@H](O)[C@H]3CCCC[C@]3(CO1)OO2 [Compound 2a, (3R,5R,5aR,9aS)-3-methyloctahydro-1H-3,9a-epidioxybenzo[c]oxepin-5-ol] | 0.43 | 1260 (≈ 5.86 µM) | 0.43 | 0.44 | 885 (≈ 4.13 µM) | 0.44 | Antimalarial activity resided with only the artemisinin-like enantiomer; also recorded: the only alcohol of the pair with antimalarial activity | – | – | – | 108 to 110 | – |
| CC12CC(OC(=O)C=Cc3ccccc3)C3CCCCC3(CO1)OO2 (stereo not shown) [Compound 13, 3-Methyloctahydro-1H-3,9a-epidioxybenzo[c]oxepin-5-yl cinnamate] | 13.14 | 131 (≈ 0.38 µM) | – | 8.37 | 148 (≈ 0.43 µM) | – | – | – | – | – | – | – |
| CC(=O)OCC1(O)CCCCC1C(C)=O (stereo not shown) [Compound 29, (2-Acetyl-1-hydroxycyclohexyl)methyl acetate] | – | – | – | – | – | – | Neither 22 nor 29 possessed in vitro antimalarial activity; also recorded: no antimalarial activity | – | – | – | – | – |
| CC12CC(O)C3CCCCC3(CO1)OO2 (racemic) [rac-2, 3-Methyloctahydro-1h-3,9a-epidioxybenzo[c]oxepin-5-ol] | – | 1720 (≈ 8.01 µM) | 0.62 | 0.43 | 1780 (≈ 8.3 µM) | 0.43 | – | – | – | – | 109 to 111 | – |
| CC12CC(OC(=O)c3ccccc3)C3CCCCC3(CO1)OO2 (stereo not shown) [Compound 10, 3-Methyloctahydro-1H-3,9a-epidioxybenzo[c]oxepin-5-yl benzoate] | 10.40 | 153 (≈ 0.48 µM) | – | 9.50 | 121 (≈ 0.38 µM) | – | – | – | – | – | 100 to 102 | – |
| C[C@@H]1CC[C@H]2[C@@H](C)C(=O)O[C@@H]3O[C@@]4(C)CC[C@@H]1[C@]32OO4 [Compound 1, Artemisinin] | 100 | 7.05 (≈ 0.025 µM) | – | 100 | 5.08 (≈ 0.018 µM) | – | – | – | – | – | – | 5 to 7 (≈ 0.0177 to 0.0248 µM) |
| CC(=O)OCC12CCCCC1C(O)CO2 (stereo not shown) [Compound 22, (3-Hydroxyhexahydrobenzofuran-7a(2H)-yl)methyl acetate] | – | – | – | – | – | – | Neither 22 nor 29 possessed in vitro antimalarial activity; also recorded: no antimalarial activity | – | – | – | 123 to 125 | – |
| CCCCC(=O)OC1CC2(C)OCC3(CCCCC13)OO2 (stereo not shown) [Compound 9, 3-Methyloctahydro-1H-3,9a-epidioxybenzo[c]oxepin-5-yl pentanoate] | 5.00 | 149 (≈ 0.5 µM) | – | 2.60 | 209 (≈ 0.7 µM) | – | – | – | – | – | – | – |
| CC12CC(OC(=O)c3ccc(F)cc3)C3CCCCC3(CO1)OO2 (stereo not shown) [Compound 11, 3-Methyloctahydro-1H-3,9a-epidioxybenzo[c]oxepin-5-yl 4-fluorobenzoate] | 20.81 | 80.7 (≈ 0.24 µM) | 20.81 | 12.41 | 97.5 (≈ 0.29 µM) | 12.41 | – | – | – | – | 88 to 90 | – |
| C[C@]12C[C@H](O)[C@@H]3CCCC[C@@]3(CO1)OO2 [Compound 2b, (3S,5S,5aS,9aR)-3-methyloctahydro-1H-3,9a-epidioxybenzo[c]oxepin-5-ol] | – | – | – | – | – | – | devoid of antimalarial activity | – | – | – | 107 to 109 | – |
| CC12CC(OC(=O)c3ccc(Cl)cc3)C3CCCCC3(CO1)OO2 (stereo not shown) [Compound 14, 3-Methyloctahydro-1H-3,9a-epidioxybenzo[c]oxepin-5-yl 4-chlorobenzoate] | 12.18 | 145 (≈ 0.41 µM) | – | 10.58 | 120 (≈ 0.34 µM) | – | – | – | – | – | 110 to 112 | – |
| COC(C(=O)OC1CC2(C)OCC3(CCCCC13)OO2)(c1ccccc1)C(F)(F)F [Compound 19b, (3S,5S,5aS,9aR)-3-methyloctahydro-1H-3,9a-epidioxybenzo[c]oxepin-5-yl(R)-3,3,3-trifluoro-2-methoxy-2-phenylpropanoate] | 0.50 | – | 0.50 | 0.34 | – | 0.34 | – | – | 2169.31 (≈ 5.04 µM) | 2255.40 (≈ 5.24 µM) | – | – |
| COc1ccc(C(=O)OC2CC3(C)OCC4(CCCCC24)OO3)cc1 (stereo not shown) [Compound 12, 3-Methyloctahydro-1H-3,9a-epidioxybenzo[c]oxepin-5-yl 4-methoxybenzoate] | 15.13 | 115 (≈ 0.33 µM) | – | 7.50 | 167 (≈ 0.48 µM) | – | – | – | – | – | 155 to 157 | – |
| C=C1CC2(C)OCC3(CCCCC13)OO2 (stereo not shown) [Compound 16] | 3.05 | 345 (≈ 1.64 µM) | – | 2.18 | 346 (≈ 1.65 µM) | – | – | – | – | – | – | – |
